Data on 14 compounds can be found in patent publication US11111214B2 (priority 2013, dated 2021).

One may read the EC50 as the concentration at which the effect is half-maximal. Low readings indicate an effect from little substance, high ones a need for much substance. For orientation: IC50 means the concentration at which inhibition is half-maximal. Broadly, the Ki is the equilibrium dissociation constant of an inhibitor or competing ligand from its target.

The nature of data set [1]: in vitro. Particulars: human, hepatocytes.
A short description of data set [2]: in vitro. The conditions noted are these: rat, hepatocytes.
Data set [3] has as its target T1, KOR (kappa opioid receptor) (Homo sapiens, UniProt P41145).
T1 construct: expressed in transfected cells; host or cells: CHO-K1 cells stably expressing KOR
The data set is described as follows: cell-based.

For data set [4], the target named is T2, recombinant human kappa (KOR) opioid receptor (Homo sapiens, UniProt P41145).
T2 construct: expressed in transfected cells; host or cells: CHO-K1 cell membranes
T2 sequence (P41145 whole entry): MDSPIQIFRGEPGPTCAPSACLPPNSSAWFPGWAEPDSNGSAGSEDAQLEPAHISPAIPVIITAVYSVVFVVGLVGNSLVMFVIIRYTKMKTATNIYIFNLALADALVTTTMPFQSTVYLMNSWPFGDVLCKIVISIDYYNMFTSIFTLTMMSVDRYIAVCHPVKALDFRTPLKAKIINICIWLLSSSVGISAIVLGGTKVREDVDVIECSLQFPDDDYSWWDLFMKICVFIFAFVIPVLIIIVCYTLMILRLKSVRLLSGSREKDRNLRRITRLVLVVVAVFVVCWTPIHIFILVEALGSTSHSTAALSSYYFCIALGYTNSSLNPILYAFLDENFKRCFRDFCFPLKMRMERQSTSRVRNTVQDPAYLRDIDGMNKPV
Kind of data set: biochemical. The format is binding.

Assay in data set [5]: not given
This is another data set of the same source.

Data set [6] concerns the target T3, recombinant human mu (MOR) opioid receptor (Homo sapiens, UniProt P35372).
T3 construct: expressed in transfected cells; host or cells: CHO-K1 cell membranes
The data set is described as follows: biochemical. The format is binding. Particulars: for inhibition at 10 µM: read-out: Mu receptor % inhibition at single concentration, % inhibition @ 10 μM.

T1 sequence (P41145 whole entry): as above
T3 sequence (P35372 whole entry): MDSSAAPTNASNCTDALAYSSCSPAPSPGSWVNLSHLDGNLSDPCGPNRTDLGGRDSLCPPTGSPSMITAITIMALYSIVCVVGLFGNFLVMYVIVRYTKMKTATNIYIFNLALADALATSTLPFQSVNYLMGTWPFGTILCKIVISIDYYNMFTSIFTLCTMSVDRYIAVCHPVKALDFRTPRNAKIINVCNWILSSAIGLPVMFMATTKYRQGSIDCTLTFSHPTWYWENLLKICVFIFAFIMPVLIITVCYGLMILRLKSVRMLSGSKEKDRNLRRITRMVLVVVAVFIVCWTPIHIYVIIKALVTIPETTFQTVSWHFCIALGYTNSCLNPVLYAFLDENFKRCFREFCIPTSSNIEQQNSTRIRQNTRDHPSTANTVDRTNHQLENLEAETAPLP

In the case of `COCCOCCOCCOCCOCCNc1ccc([C@@H](CN2CCCC2)N(C)C(=O)Cc2ccc(Cl)c(Cl)c2)cc1` [compound 35, (S)—N-(1-(4-(2,5,8,11,14-pentaoxahexadecan-16-ylamino)phenyl)-2-(pyrrolidin-1-yl)ethyl)-2-(3,4-dichlorophenyl)-N-methylacetamide], the “In vitro Hepatocyte Clearance, Rat % hep Blood flow” value is given as 44%. In the data set “in vitro [1]”, the CLhep predicted was 15 mL/min/kg. For the same compound, the CLhep predicted in the data set “in vitro [2]” is 26.5 mL/min/kg. Further, in data set [3], the EC50 amounted to 2.59 nM. Moreover, in data set [4], the 50% inhibitory concentration (IC50) is 24.7 nM and the Ki turned out to be 5.7 nM. Besides, the “In vitro Hepatocyte Clearance, Human % hep Blood flow” value in data set [5] is recorded as 65%. Also, the inhibition at 10 µM in data set [6] worked out at 30.6%.

On to `COCCOCCOCCOCCOCCOc1ccc([C@@H](CN2CCCC2)N(C)C(=O)Cc2ccc(Cl)c(Cl)c2)cc1.Cl` [compound 34, (S)—N-(1-(4-(2,5,8,11,14-pentaoxahexadecan-16-yloxy)phenyl)-2-(pyrrolidin-1-yl)ethyl)-2-(3,4-dichlorophenyl)-N-methylacetamide], for which the “In vitro Hepatocyte Clearance, Rat % hep Blood flow” value was found to be 26%. Besides, in “in vitro [1]”, the CLhep predicted was 16.4 mL/min/kg. Besides, the CLhep predicted in the data set “in vitro [2]” is 15.4 mL/min/kg. The EC50 in data set [3] turned out to be 13 nM. Moreover, in data set [4], the IC50 is 107 nM and the Ki stood at 24.6 nM. For the same compound, the “In vitro Hepatocyte Clearance, Human % hep Blood flow” value in data set [5] was determined as 71%. In addition, the inhibition at 10 µM in data set [6] is 17.6%.

`COCCOCC(=O)Nc1cccc([C@@H](CN2CC[C@H](O)C2)N(C)C(=O)Cc2ccc(Cl)c(Cl)c2)c1` [compound 50, 2-(3,4-dichlorophenyl)-N-[(1S)-2-[(3S)-3-hydroxypyrrolidin-1-yl]-1-(3-{[(2-methoxyethoxy)acetyl]amino}phenyl)ethyl]-N-methylacetamide]: in data set [3], it took 0.06 nM to reach a half-maximal effect (EC50). Further, in data set [4], the half-maximal inhibitory concentration (IC50) was determined as 0.52 nM and the Ki amounted to 0.12 nM. Also, the inhibition at 10 µM in data set [6] was determined as 101%.

For the compound `CN(C(=O)Cc1ccc(Cl)c(Cl)c1)[C@H](CN1CCCC1)c1cccc(NS(=O)(=O)C2CS(=O)(=O)CC2O)c1` (stereo partly drawn) [compound 22, 2-(3,4-dichlorophenyl)-N-[(1S)-1-(3-{[(4-hydroxy-1,1-dioxidotetrahydrothiophen-3-yl)sulfonyl]amino}phenyl)-2-(pyrrolidin-1-yl)ethyl]-N-methylacetamide], the response in data set [3] was half-maximal at 0.03 nM (EC50). For the same compound, in data set [4], the half-maximal inhibitory concentration (IC50) was found to be 0.32 nM and the Ki amounted to 0.07 nM. Also, in data set [6], the inhibition at 10 µM was found to be 90.2%.

Compound `COCCS(=O)(=O)Nc1cccc([C@@H](CN2CCCC2)N(C)C(=O)Cc2ccc(Cl)c(Cl)c2)c1` [compound 18, 2-(3,4-dichlorophenyl)-N-[(1S)-1-(3-{[(2-methoxyethyl)sulfonyl]amino}phenyl)-2-(pyrrolidin-1-yl)ethyl]-N-methylacetamide] displayed a 50% effective concentration (EC50) in data set [3] of 0.09 nM. In addition, in data set [4], the IC50 came to 0.57 nM and the Ki came to 0.13 nM. Also, the inhibition at 10 µM in data set [6] amounted to 97.8%.

With `CN(C(=O)Cc1ccc(Cl)c(Cl)c1)[C@H](CN1CC[C@H](O)C1)c1ccc(OCCO)cc1` [compound 38, 2-(3,4-dichlorophenyl)-N—((S)-1-(4-(2-hydroxyethoxy)phenyl)-2-((S)-3-hydroxypyrrolidin-1-yl)ethyl)-N-methylacetamide], the response in data set [3] was half-maximal at 0.03 nM (EC50). In data set [4], the IC50 amounted to 0.49 nM and the inhibition constant Ki turned out to be 0.06 nM. Further, the inhibition at 10 µM in data set [6] was 87.2%.

`CN(C(=O)Cc1ccc(Cl)c(Cl)c1)[C@H](CN1CCCC1)c1ccccc1` [ICI-199,441, reference compound]: the “In vitro Hepatocyte Clearance, Rat % hep Blood flow” value came to 73.0%. For the same compound, the CLhep predicted in the data set “in vitro [1]” is 19.7 mL/min/kg. Moreover, in “in vitro [2]”, the CLhep predicted is 44 mL/min/kg. The “In vitro Hepatocyte Clearance, Human % hep Blood flow” value in data set [5] was 85.0%.

`CN(C(=O)C(c1ccccc1)c1ccccc1)[C@H](CN1CCCC1)c1cccc(N)c1` [compound 51, (S)—N-Methyl-N-(1-(3-aminophenyl)-2-(pyrrolidin-1-yl)ethyl)-2,2-diphenylacetamide] came in with a half-maximal effective concentration (EC50) in data set [3] of 5.18 nM. In data set [4], the concentration for half-maximal inhibition (IC50) came to 62.2 nM and the Ki amounted to 14.3 nM. The inhibition at 10 µM in data set [6] came out at 54.5%.

`CN(C(=O)Cc1ccc(Cl)c(Cl)c1)[C@H](CN1CC[C@H](OCCOCCOCC(=O)O)C1)c1ccccc1` [compound 29, {2-[2-({(3S)-1-[(2S)-2-{[(3,4-Dichlorophenyl)acetyl](methyl)amino}-2-phenylethyl]pyrrolidin-3-yl}oxy)ethoxy]ethoxy}acetic Acid]: the 50% effective concentration (EC50) in data set [3] is 41.2 nM. Besides, in data set [4], the half-maximal inhibitory concentration (IC50) was found to be 580 nM and the Ki was determined as 111 nM. Moreover, in data set [6], the IC50 amounted to 25900 nM and the inhibition at 10 µM was found to be 30.5%.

Take `CN(C(=O)C(c1ccccc1)c1ccccc1)[C@H](CN1CC[C@H](O)C1)c1ccccc1` [Asimadoline, asimadoline, reference compound]: the “In vitro Hepatocyte Clearance, Rat % hep Blood flow” value was 85.0%. Also, the CLhep predicted in “in vitro [1]” is 18.2 mL/min/kg. Also, in the data set “in vitro [2]”, the CLhep predicted is 51 mL/min/kg. In addition, the “In vitro Hepatocyte Clearance, Human % hep Blood flow” value in data set [5] was 79.0%.

`COCCOCC(=O)Nc1cccc([C@@H](CN2CC[C@H](O)C2)N(C)C(=O)C(c2ccccc2)c2ccccc2)c1` [compound 11, N-[(1S)-2-[(3S)-3-Hydroxypyrrolidin-1-yl]-1-(3-{[(2-methoxyethoxy)acetyl]amino}phenyl)ethyl]-N-methyl-2,2-diphenylacetamide] had a concentration giving a half-maximal response (EC50) in data set [3] of 5.02 nM. In data set [4], the concentration for half-maximal inhibition (IC50) came to 58.1 nM and the Ki was determined as 13.4 nM. Besides, in data set [6], the inhibition at 10 µM is 45.2%.

In turn, `COCCOCCOCCOCCOCCO[C@H]1CCN(C[C@H](c2ccccc2)N(C)C(=O)CNc2ccccc2)C1` [compound 8, N-Methyl-N-{(1S)-2-[(3S)-3-(2,5,8,11,14-pentaoxahexadecan-16-yloxy)pyrrolidin-1-yl]-1-phenylethyl}-N^2-phenylglycinamide] yielded an EC50 in data set [3] of 74.7 nM. Also, in data set [4], the IC50 was 1480 nM and the Ki turned out to be 342 nM. Besides, in data set [6], the inhibition at 10 µM was determined as 47.5%.

`COCCOCCOCCOCCOCCOCCOCCOC(=O)N[C@H](C(=O)Nc1cccc([C@@H](CN2CC[C@H](O)C2)N(C)C(=O)Cc2ccc(Cl)c(Cl)c2)c1)C(C)C` [compound 48, N-(3-{(1S)-1-{[(3,4-Dichlorophenyl)acetyl](methyl)amino}-2-[(3S)-3-hydroxypyrrolidin-1-yl]ethyl}phenyl)-N^2-2,5,8,11,14,17,20,23-octaoxatetracosan-1-oylvalinamide]: the 50% effective concentration (EC50) in data set [3] amounted to 0.43 nM. Moreover, in data set [4], the IC50 was determined as 3.48 nM and the Ki is 0.8 nM. Also, in data set [6], the inhibition at 10 µM turned out to be 73.2%.

As to `CN(C(=O)Cc1ccc(Cl)c(Cl)c1)[C@H](CN1CC[C@H](OCCOCCO)C1)c1ccccc1` [compound 26, 2-(3,4-Dichlorophenyl)-N-[(1S)-2-{(3S)-3-[2-(2-hydroxyethoxy)ethoxy]pyrrolidin-1-yl}-1-phenylethyl]-N-methylacetamide], the EC50 in data set [3] was 14.3 nM. In data set [4], the half-maximal inhibitory concentration (IC50) is 1130 nM and the inhibition constant Ki was determined as 148 nM. Besides, in data set [6], the IC50 worked out at 38700 nM and the inhibition at 10 µM was found to be 35.1%.
